Laboratory results taken from patent US9040545B2, “Heterocyclyl pyrazolopyrimidine analogues as selective JAK inhibitors” (Cellzome Limited, priority 2010, dated 2015).
pIC50: −log10 of the molar value.

Target: T1, JAK3 (Homo sapiens, UniProt P52333)
T1 construct: endogenous in cells; host or cells: mixed Molt4/Ramos lysate (1:2)
T1 sequence (P52333 1-1124): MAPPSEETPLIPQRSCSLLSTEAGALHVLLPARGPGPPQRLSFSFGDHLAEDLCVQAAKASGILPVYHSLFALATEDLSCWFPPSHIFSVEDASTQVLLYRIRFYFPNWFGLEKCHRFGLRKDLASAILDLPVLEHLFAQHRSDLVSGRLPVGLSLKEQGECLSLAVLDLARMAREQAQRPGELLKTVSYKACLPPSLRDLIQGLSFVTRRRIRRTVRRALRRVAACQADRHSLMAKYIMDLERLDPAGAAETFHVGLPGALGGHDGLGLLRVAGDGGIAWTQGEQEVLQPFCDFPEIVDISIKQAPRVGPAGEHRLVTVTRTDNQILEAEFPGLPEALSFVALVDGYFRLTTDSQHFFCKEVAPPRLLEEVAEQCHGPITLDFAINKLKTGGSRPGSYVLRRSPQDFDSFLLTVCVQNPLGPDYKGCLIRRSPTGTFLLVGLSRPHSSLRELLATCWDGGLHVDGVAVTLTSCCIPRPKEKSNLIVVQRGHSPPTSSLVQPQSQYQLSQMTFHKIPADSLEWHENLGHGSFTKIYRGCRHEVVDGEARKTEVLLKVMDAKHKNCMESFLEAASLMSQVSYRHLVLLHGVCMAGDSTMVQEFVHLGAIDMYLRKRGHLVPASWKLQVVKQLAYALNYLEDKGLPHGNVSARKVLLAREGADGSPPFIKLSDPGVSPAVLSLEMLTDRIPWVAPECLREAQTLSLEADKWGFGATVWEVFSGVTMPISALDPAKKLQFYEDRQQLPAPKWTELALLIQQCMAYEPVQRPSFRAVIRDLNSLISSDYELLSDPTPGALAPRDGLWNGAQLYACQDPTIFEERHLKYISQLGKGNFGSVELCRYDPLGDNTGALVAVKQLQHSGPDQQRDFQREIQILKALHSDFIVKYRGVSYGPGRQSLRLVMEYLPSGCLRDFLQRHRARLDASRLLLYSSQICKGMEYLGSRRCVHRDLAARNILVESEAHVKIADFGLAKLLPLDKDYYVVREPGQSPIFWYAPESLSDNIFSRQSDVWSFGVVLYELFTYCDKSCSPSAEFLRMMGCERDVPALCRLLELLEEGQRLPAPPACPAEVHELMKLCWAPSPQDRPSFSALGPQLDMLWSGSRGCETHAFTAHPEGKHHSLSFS
Test: Kinobeads assay, JAK3
Assay type: binding
Details: mixed Molt4/Ramos lysate, read-out: Inhibition values (IC50) JAK3
Procedure: The compounds of the present invention as described in the previous examples were tested in a Kinobeads™ assay as described for ZAP-70 (WO-A 2007/137867). Briefly, test compounds (at various concentrations) and the affinity matrix with the immobilized aminopyrido-pyrimidine ligand 24 were added to cell lysate aliquots and allowed to bind to the proteins in the lysate sample. After the incubation time the beads with captured proteins were separated from the lysate. Bound proteins were then eluted and the presence of JAK2 and JAK3 was detected and quantified using specific antibodies in a dot blot procedure and the Odyssey infrared detection system. Dose response curves for individual kinases were generated and IC50 values calculated. Kinobeads™ assays for ZAP-70 (WO-A 2007/137867) and for kinase selectivity profiling (WO-A 2006/134056) have been previously described.
The affinity matrix was washed two times with 15 mL of 1×DP buffer containing 0.2% NP40 (IGEPAL® CA-630, Sigma, #I3021) and then resuspended in 1×DP buffer containing 0.2% NP40 (3% beads slurry).
5×DP buffer 250 mM Tris-HCl pH 7.4, 25% Glycerol, 7.5 mM MgCl2, 750 mM NaCl, 5 mM Na3VO4; filter the 5×DP buffer through a 0.22 μm filter and store in aliquots at −80° C. The 5×DP buffer is diluted with H2O to 1×DP buffer containing 1 mM DTT and 25 mM NaF.
Stock solutions of test compounds were prepared in DMSO. In a 96 well plate 30 μL solution of diluted test compounds at 5 mM in DMSO were prepared. Starting with this solution a 1:3 dilution series (9 steps) was prepared. For control experiments (no test compound) a buffer containing 2% DMSO was used.
Molt4 cells (ATCC catalogue number CRL-1582) and Ramos cells (ATCC catalogue number CRL-1596) were grown in 1 L Spinner flasks (Integra Biosciences, #182101) in suspension in RPMI 1640 medium (Invitrogen, #21875-034) supplemented with 10% Fetal Bovine Serum (Invitrogen) at a density between 0.15×106 and 1.2×10^6 cells/mL. Cells were harvested by centrifugation, washed once with 1×PBS buffer (Invitrogen, #14190-094) and cell pellets were frozen in liquid nitrogen and subsequently stored at −80° C. Cells were homogenized in a Potter S homogenizer in lysis buffer: 50 mM Tris-HCl, 0.8% NP40, 5% glycerol, 150 mM NaCl, 1.5 mM MgCl2, 25 mM NaF, 1 mM sodium vanadate, 1 mM DTT, pH 7.5. One complete EDTA-free tablet (protease inhibitor cocktail, Roche Diagnostics, 1873580) per 25 mL buffer was added. The material was dounced 10 times using a mechanized POTTER S, transferred to 50 mL falcon tubes, incubated for 30 minutes on ice and spun down for 10 minutes at 20,000 g at 4° C. (10,000 rpm in Sorvall SLA600, precooled). The supernatant was transferred to an ultracentrifuge (UZ)-polycarbonate tube (Beckmann, 355654) and spun for 1 hour at 100,000 g at 4° C. (33.500 rpm in Ti50.2, precooled). The supernatant was transferred again to a fresh 50 mL falcon tube, the protein concentration was determined by a Bradford assay (BioRad) and samples containing 50 mg of protein per aliquot were prepared. The samples were immediately used for experiments or frozen in liquid nitrogen and stored frozen at −80° C.
Cell lysate (approximately 50 mg protein per plate) was thawed in a water bath at room temperature and then stored on ice. To the thawed cell lysate 1×DP 0.8% NP40 buffer containing protease inhibitors (1 tablet for 25 mL buffer; EDTA-free protease inhibitor cocktail; Roche Diagnostics 1873580) was added in order to reach a final protein concentration of 10 mg/mL total protein. The diluted cell lysate was stored on ice. Mixed Molt4/Ramos lysate was prepared by combining one volume of Molt4 lysate and two volumes of Ramos lysate (ratio 1:2).
To a 96 well filter plate (Multiscreen HTS, BV Filter Plates, Millipore #MSBVN1250) were added per well: 100 μL affinity matrix (3% beads slurry), 3 μL of compound solution, and 50 μL of diluted lysate. […]

SMILES | pIC50
CNCCCn1cc(Nc2ncc3cnn(Cc4cc(F)cc(N5CCOCC5=O)c4)c3n2)cn1 [Example 99, 4-(3-fluoro-5-((6-((1-(3-(methylamino)propyl)-1H-pyrazol-4-yl)amino)-1H-pyrazolo[3,4-d]pyrimidin-1-yl)methyl)phenyl)morpholin-3-one] | > 7.00
Cn1cc(Nc2ncc3cnn(Cc4cccc(N5CCN(S(C)(=O)=O)CC5)c4)c3n2)cn1 [Example 100, N-(1-methyl-1H-pyrazol-4-yl)-1-(3-(4-(methylsulfonyl)piperazin-1-yl)benzyl)-1H-pyrazolo[3,4-d]pyrimidin-6-amine] | > 7.00
O=C1COCCN1c1cc(F)cc(Cn2ncc3cnc(Nc4cnn(CC5CCNC5)c4)nc32)c1 (stereo not drawn) [Example 101, 4-(3-fluoro-5-((6-((1-(pyrrolidin-3-ylmethyl)-1H-pyrazol-4-yl)amino)-1H-pyrazolo[3,4-d]pyrimidin-1-yl)methyl)phenyl)morpholin-3-one] | > 7.00
O=C1COCCN1c1cc(F)cc(Cn2ncc3cnc(Nc4cnn(C5CCNCC5)c4)nc32)c1 [Example 102, 4-(3-fluoro-5-((6-((1-(piperidin-4-yl)-1H-pyrazol-4-yl)amino)-1H-pyrazolo[3,4-d]pyrimidin-1-yl)methyl)phenyl)morpholin-3-one] | > 7.00
Cn1cc(Nc2ncc3cnn(Cc4cccc(N5CCOCC5)c4Cl)c3n2)cn1 [Example 103, 1-(2-chloro-3-morpholinobenzyl)-N-(1-methyl-1H-pyrazol-4-yl)-1H-pyrazolo[3,4-d]pyrimidin-6-amine] | > 7.00
Cn1cc(Nc2ncc3cnn(Cc4cccc(N5CCC6(COC6)C5)c4)c3n2)cn1 [Example 104, 1-(3-(2-oxa-6-azaspiro[3.4]octan-6-yl)benzyl)-N-(1-methyl-1H-pyrazol-4-yl)-1H-pyrazolo[3,4-d]pyrimidin-6-amine] | 6.00 to 7.00
O=C1CC(Cn2cc(Nc3ncc4cnn(Cc5cc(F)cc(N6CCOCC6=O)c5)c4n3)cn2)CN1 (stereo not drawn) [Example 105, 4-(3-fluoro-5-((6-((1-((5-oxopyrrolidin-3-yl)methyl)-1H-pyrazol-4-yl)amino)-1H-pyrazolo[3,4-d]pyrimidin-1-yl)methyl)phenyl)morpholin-3-one] | > 7.00
O=C1COCCN1c1cc(F)cc(Cn2ncc3cnc(Nc4cnn(CCS(=O)(=O)NC5CC5)c4)nc32)c1 [Example 106, N-cyclopropyl-2-(4-((1-(3-fluoro-5-(3-oxomorpholino)benzyl)-1H-pyrazolo[3,4-d]pyrimidin-6-yl)amino)-1H-pyrazol-1-yl)ethanesulfonamide] | > 7.00

More lines, now with the values ahead:

pIC50 | SMILES
> 7.00 | Cn1cc(Nc2ncc3cnn(Cc4cccc(N5CC6(COC6)C5)c4)c3n2)cn1 [Example 89, 1-(3-(2-oxa-6-azaspiro[3.3]heptan-6-yl)benzyl)-N-(1-methyl-1H-pyrazol-4-yl)-1H-pyrazolo[3,4-d]pyrimidin-6-amine]
> 7.00 | Cn1cc(Nc2ncc3cnn(Cc4cc(F)cc(N5CC6(COC6)C5)c4)c3n2)cn1 [Example 90, 1-(3-fluoro-5-(2-oxa-6-azaspiro[3.3]heptan-6-yl)benzyl)-N-(1-methyl-1H-pyrazol-4-yl)-1H-pyrazolo[3,4-d]pyrimidin-6-amine]
> 7.00 | Cn1cc(Nc2ncc3cnn(Cc4cccc(N5CC6(COC6)C5)c4F)c3n2)cn1 [Example 91, 1-(2-fluoro-3-(2-oxa-6-azaspiro[3.3]heptan-6-yl)benzyl)-N-(1-methyl-1H-pyrazol-4-yl)-1H-pyrazolo[3,4-d]pyrimidin-6-amine]
> 7.00 | Cn1cc(Nc2ncc3cnn(Cc4cc(F)cc(N5CCNCC5)c4)c3n2)cn1 [Example 92, 1-(3-fluoro-5-(piperazin-1-yl)benzyl)-N-(1-methyl-1H-pyrazol-4-yl)-1H-pyrazolo[3,4-d]pyrimidin-6-amine]
> 7.00 | OCCn1cc(Nc2ncc3cnn(Cc4cc(F)cc(N5CCNCC5)c4)c3n2)cn1 [Example 93, 2-(4-((1-(3-fluoro-5-(piperazin-1-yl)benzyl)-1H-pyrazolo[3,4-d]pyrimidin-6-yl)amino)-1H-pyrazol-1-yl)ethanol]
> 7.00 | Fc1cc(N2CCOCC2)c(F)c(Cn2ncc3cnc(Nc4cnn(CC5CCNC5)c4)nc32)c1F (stereo not drawn) [Example 94, N-(1-(pyrrolidin-3-ylmethyl)-1H-pyrazol-4-yl)-1-(2,3,6-trifluoro-5-morpholinobenzyl)-1H-pyrazolo[3,4-d]pyrimidin-6-amine]
> 7.00 | Cn1cc(Nc2ncc3cnn(Cc4cc(F)cc(N5CCNCC5)c4F)c3n2)cn1 [Example 95, 1-(2,5-difluoro-3-(piperazin-1-yl)benzyl)-N-(1-methyl-1H-pyrazol-4-yl)-1H-pyrazolo[3,4-d]pyrimidin-6-amine]
> 7.00 | OCCn1cc(Nc2ncc3cnn(Cc4cc(F)cc(N5CCNCC5)c4F)c3n2)cn1 [Example 96, 2-(4-((1-(2,5-difluoro-3-(piperazin-1-yl)benzyl)-1H-pyrazolo[3,4-d]pyrimidin-6-yl)amino)-1H-pyrazol-1-yl)ethanol]
> 7.00 | CN(C)CC(F)Cn1cc(Nc2ncc3cnn(Cc4cc(F)cc(N5CCOCC5=O)c4)c3n2)cn1 (stereo not drawn) [Example 97, 4-(3-((6-((1-(3-(dimethylamino)-2-fluoropropyl)-1H-pyrazol-4-yl)amino)-1H-pyrazolo[3,4-d]pyrimidin-1-yl)methyl)-5-fluorophenyl)morpholin-3-one]
> 7.00 | Cn1cc(Nc2ncc3cnn(Cc4cc(C(=O)N5CCOCC5)cc(F)c4F)c3n2)cn1 [Example 98, (3,4-difluoro-5-((6-((1-methyl-1H-pyrazol-4-yl)amino)-1H-pyrazolo[3,4-d]pyrimidin-1-yl)methyl)phenyl)(morpholino)methanone]
